The values that follow come from publication PMC10098062 (Molecular Plant Pathology, 2023).

Structures are written as SMILES.

The target of the test is T1, SstF (SFN-sensing transcription factor, LysR family) (Xanthomonas campestris, UniProt Q8PAP2).
T1 sequence (Q8PAP2 1-344): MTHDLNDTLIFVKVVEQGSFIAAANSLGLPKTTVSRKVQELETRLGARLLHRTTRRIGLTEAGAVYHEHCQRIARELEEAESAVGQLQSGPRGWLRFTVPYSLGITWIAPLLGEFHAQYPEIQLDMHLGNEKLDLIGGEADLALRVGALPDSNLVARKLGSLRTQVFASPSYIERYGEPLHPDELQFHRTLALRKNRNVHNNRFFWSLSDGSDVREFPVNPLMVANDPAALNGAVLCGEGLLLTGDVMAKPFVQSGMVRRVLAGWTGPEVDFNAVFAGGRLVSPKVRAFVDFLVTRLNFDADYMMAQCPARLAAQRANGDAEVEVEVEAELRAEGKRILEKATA
Nature of the test: SPR. It counts as binding.

Turning to `C[S+]([O-])CCCCN=C=S` (stereo not shown) [SFN, Sulforaphane], the Kd is 17.3 nM.
